Test results reported in patent US12290601B2, “Pharmaceutical composition comprising axitinib” (Synthon B.V., priority 2019, dated 2025).
Read-outs that look alike come from different tables or passages of the source. Values belong to the molecule of their own block, whether it stands above or below them.

How the values were obtained:
[1] = cited from earlier work
[2] = among polymorphic forms; cited from earlier work
Aqueous solubility = assay type: physicochemical; conditions: versus form XLI
[3] = Photo-stability of crystalline forms; assay type: physicochemical; conditions: versus form XLI

SMILES: CNC(=O)c1ccccc1Sc1ccc2c(/C=C/c3ccccn3)n[nH]c2c1 [Axitinib, N-methyl-2-({3-[(E)-2-pyridin-2-ylethenyl]-1H-indazol-6-yl}sulfanyl)benzamide]
solubility [1]: low solubility
solubility ([1]; gastric, pH 1.7): highly soluble

SMILES: CNC(=O)c1ccccc1Sc1ccc2c(/C=C/c3ccccn3)n[nH]c2c1 [Form XLI, N-methyl-2-({3-[(E)-2-pyridin-2-ylethenyl]-1H-indazol-6-yl}sulfanyl)benzamide]
thermodynamic stability [2]: most thermodynamically stable

aqueous solubility, fold higher compared to crystalline axitinib form XLI (Aqueous solubility): 2-3 fold
photo-stability compared to crystalline axitinib form XLI [3]: less photo-stable
SMILES: CNC(=O)c1ccccc1Sc1ccc2c(/C=C/c3ccccn3)n[nH]c2c1 [axitinib form IV, N-methyl-2-({3-[(E)-2-pyridin-2-ylethenyl]-1H-indazol-6-yl}sulfanyl)benzamide]
